{"source": "patent US20230210906A1", "about": "“Composite 3D Brain Organoids with Optic Structures, Uses Thereof and Culture Medium for Obtaining Them” (priority 2022, published 2023)", "key": {"[1]": {"tested_on": "sodium channel of organoid neurons (cell lines IMR-90 and GM25256)", "type": "cell-based, human"}, "[2]": {"tested_on": "optic vesicle brain organoids (cell line GM25256)", "description": "Optic vesicle organoids of day 40 to 50 were transferred to wells of a 12-wellplate each with 2 ml of optic organoid medium and kept in absolute darkness at 37° C. and 5% CO2 for 24 hours before electroretinogram (ERG) experiments. For ERG, each organoid was placed under red light in an electrode chamber. The electrode chamber was then placed into the dark chamber of the ERG apparatus and connected to the superfusion system containing optic organoid medium. For dose dependent light sensitivity, organoids were exposed to 500 milliseconds long flashes of 2000, 20.000 and 200.000 mlux. Each light intensity was repeated three times in a time interval of 3 min. before the next higher light intensity was applied and responses were recorded. Speed of superfusion was 0.5 ml/min.\nFor a third experiment, organoids were superfused in optic organoid medium with higher speed of 2 ml/min. […] For isolating the A-wave by blocking signal transduction from photoreceptors to next the retinal cell layers, 10 mM aspartate was added to the medium after the equilibration time and electric response was continuously recorded. Finally, aspartate was washed out by adding optic organoid medium without aspartate into the system while recording of electric signals as response to flashes."}, "[3]": {"tested_on": "rod-bipolar synaptic disjunction", "conditions": "cited from earlier work"}, "[4]": {"tested_on": "A2E formation and lipofuscin accumulation", "conditions": "mouse model of recessive Stargardt's macular degeneration; cited from earlier work"}, "[5]": {"tested_on": "cells of the cell line IMR90", "test": "Optic vesicle formation in iPSC-derived 3D brain organoids exposed to retinol acetate", "type": "cell-based, human", "conditions": "for Percentage of organoids with optic vesicles (%): cell line IMR90", "description": "It is important to start differentiation with a well-maintained human iPS cell culture. Cells were splitted once after thawing, mycoplasma tested and checked for appropriate stem cell morphology. Before inducing neural differentiation, iPS cells were dissociated to single cells. Therefore, iPS cells were once carefully washed with pre-warmed DMEM/F12 (Gibco) and then treated for 5 min. at 37° C. with Accutase (Sigma-Aldrich). After cell collection, centrifuging and counting, cells were diluted in neural induction medium (NIM, Stem cell technologies) plus Rockinhibitor (10 μM, Y-27632 2HCl, Selleck Chem) at a concentration of 1×10^5 cells per ml. 100 μl of this cell suspension was given into each well of a 96-well v-bottom low adherent plate and incubated at 37° C. and 5% CO2. Half of the medium was changed every day for 5 days until neurospheres were formed.\nAt day 5 of neural induction, the neurospheres were collected carefully with a cut […] pipette tip and transferred to a 100 mm petri dish containing “neurosphere medium” (Table 9). Additionally, 0.1% Matrigel was added to the medium and neurospheres were incubated for 5 days at 37° C. and 5% CO2. At day 3, 2 ml of “optic vesicle 3D brain organoid medium” (Table 10) containing retinol acetate was added. At day 5, neurospheres were transferred to spinner flasks containing 100 ml “optic vesicle 3D brain organoid medium” ([…]) to let the neurospheres developing to optic vesicle containing brain organoids. […] Optic vesicle organoids were collected for experiments at day 20, 30 and 50. For each cell line, we performed at least 3-4 rounds (batches) of optic vesicle 3D brain organoid generation. Each batch comprises of starting from thawing iPSCs until generating optic vesicle organoids. Morphological and functional optic vesicles brain organoids were easily identified by visibly pigmented areas and used for further analyses."}}, "note": "Where two headings read alike, the source gives them in different places.", "data": [{"compound": "NC1=N[C@H](O)[C@H]2[C@H]3O[C@]4(O)O[C@@H]([C@@H](O)[C@@]2(N1)[C@@H]4O)[C@]3(O)CO", "note": "[TTX, Tetrodotoxin]", "values": [{"measurement": "Effect on Na+ current (inward current) of neurons", "setting": "[1]", "result": "blocked Na+ current"}, {"measurement": "Sensitivity of outward (outwardly rectifying K+) current", "setting": "[1]", "result": "TTX insensitive"}]}, {"compound": "N[C@@H](CC(=O)O)C(=O)O", "note": "[aspartate]", "values": [{"measurement": "ERG amplitude upon light flashes, single organoid recording", "setting": "[2]", "result": "< −400", "unit": "pV"}, {"measurement": "ERG hyperpolarization after washout of aspartate", "setting": "[2]", "result": "−147", "unit": "pV"}, {"measurement": "ERG hyperpolarization on average during aspartate treatment", "setting": "[2]", "result": "−278", "unit": "pV"}, {"measurement": "Effect on ERG b-wave", "setting": "[2]", "result": "blocked the b-wave"}]}, {"compound": "O=S(=O)(c1cccc2cnccc12)N1CCCNCC1", "note": "[fasudil]", "values": [{"measurement": "Effect on rod-bipolar synaptic disjunction", "setting": "[3]; intravitreal injection", "result": "effective"}, {"measurement": "Effect on rod-bipolar synaptic disjunction", "setting": "[3]; subretinal injection", "result": "reduces rod-bipolar synaptic disjunction"}]}, {"compound": "CC1=C(/C=C/C(C)=C/C=C/C(C)=C\\C(=O)O)C(C)(C)CCC1", "note": "[isotretinoin]", "values": [{"measurement": "Effect on A2E formation and lipofuscin accumulation", "setting": "[4]", "result": "inhibits A2E formation and lipofuscin accumulation"}]}, {"compound": "retinol acetate [Retinoic acetate]", "values": [{"measurement": "Percentage of organoids with optic vesicles (%)", "setting": "[5]; 40 nM", "result": 21, "unit": "%"}, {"measurement": "Yield of optic vesicle brain organoids", "setting": "[5]; 60 nM, among concentrations ranging from 0 to 120 nM", "result": "best results (highest yield of optic vesicle brain organoids)"}, {"measurement": "Formation of pigmented structures (possibly primordial eye fields)", "setting": "[5]; 60 nM, at around day 30", "result": "reproducibly induced the formation of pigmented structures"}, {"measurement": "Percentage of organoids with optic vesicles (%)", "setting": "[5]; 60 nM", "result": 80, "unit": "%"}, {"measurement": "Percentage of organoids with optic vesicles (%)", "setting": "[5]; 100 nM", "result": 15, "unit": "%"}, {"measurement": "Percentage of organoids with optic vesicles (%)", "setting": "[5]; 150 nM", "result": 10, "unit": "%"}, {"measurement": "Percentage of organoids with optic vesicles (%)", "setting": "[5]; 200 nM", "result": 10, "unit": "%"}, {"measurement": "Percentage of organoids with optic vesicles (%)", "setting": "[5]; 250 nM", "result": 8, "unit": "%"}]}]}
